Assay results from ChEMBL document CHEMBL1152098, “A new rearranged cholestane glycoside from ornithogalum saundersiae bulbs exhibiting potent cytostatic activities on leukemia HL-60 and molt-4 cells” (Bioorg Med Chem Lett, 1996).

Key:
HL-60 = assay: Compound was tested for its anticancer activity against HL-60 cells.; format: functional, cell-based; conditions: Homo sapiens
MOLT-4 = assay: Compound was tested for its anticancer activity against human T-lymphocytic leukemia MOLT-4 cells.; format: functional, cell-based

| IC50 (HL-60) [nM] | IC50 (MOLT-4) [nM] | SMILES |
| --- | --- | --- |
| 9.2 | 3.2 | COc1ccc(C(=O)O[C@@H]2[C@H](O)[C@@H](O)[C@H](O[C@@H]3[C@H](O[C@H]4CC[C@@]5(C)C(=CC[C@H]6[C@@H]7C[C@@H]8O[C@@H](O)[C@H](C=C(C)C)[C@]9(C)O[C@@H](OC)C7(CC[C@@H]65)[C@H]89)C4)O[C@@H](CO)[C@@H](O)[C@@H]3O)O[C@H]2C)cc1 (stereo not given in full) |
| – | 35 | COc1cccc2c1C(=O)c1c(O)c3c(c(O)c1C2=O)C[C@@](O)(C(=O)CO)C[C@@H]3O[C@H]1C[C@H](N)[C@H](O)[C@H](C)O1 [DOXORUBICIN] |
| – | 38 | COc1cc([C@@H]2c3cc4c(cc3[C@@H](O[C@@H]3O[C@@H]5CO[C@@H](C)O[C@H]5[C@H](O)[C@H]3O)[C@H]3COC(=O)[C@H]23)OCO4)cc(OC)c1O [ETOPOSIDE] |
| – | 48 | CN(Cc1cnc2nc(N)nc(N)c2n1)c1ccc(C(=O)N[C@@H](CCC(=O)O)C(=O)O)cc1 [METHOTREXATE] |
